Experimental data as given in patent publication US20020115867A1, “Imidazolyl/benzimidazolyl-terminated alkylamino ethynyl alanine amino diol compounds for treatment of hypertension” (priority 1992, published 2002).

Target: T1, human renin (Homo sapiens, UniProt P00797)
T1 construct: purchased National Institute for Biological Standards, London
T1 sequence (P00797 67-406): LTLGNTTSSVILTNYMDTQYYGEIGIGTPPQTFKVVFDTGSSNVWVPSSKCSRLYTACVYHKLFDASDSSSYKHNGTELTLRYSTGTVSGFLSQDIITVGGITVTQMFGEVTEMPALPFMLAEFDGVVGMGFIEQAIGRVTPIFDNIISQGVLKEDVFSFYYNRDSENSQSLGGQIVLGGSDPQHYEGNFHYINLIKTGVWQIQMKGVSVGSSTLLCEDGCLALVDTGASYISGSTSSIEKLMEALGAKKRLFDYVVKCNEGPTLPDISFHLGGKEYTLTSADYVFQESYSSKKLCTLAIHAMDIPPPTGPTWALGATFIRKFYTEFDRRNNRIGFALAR
Experiment: Human renin inhibition in vitro
Assay type: biochemical
Details: human plasma angiotensinogen, pH 7.4, 37° C., two hours; angiotensin I by radioimmunoassay
Protocol: Compounds of Formula I were evaluated as inhibitors of human renin in an in vitro assay, as follows: This human renin inhibition test has been previously described in detail [Papaioannou et al., Clinical and Experimental Hypertension, A7(9), 1243-1257 (1985)]. Human renin was obtained from the National Institute for Biological Standards, London. An incubation mixture was prepared containing the following components: in a total volume of 0.25 mL: 100 mM Tris-acetate buffer at pH 7.4, 25×10^−6 Goldblatt units of renin, 0.05 mL of plasma from human volunteers taking oral contraceptives, 6.0 mM Na-EDTA, 2.4 mM phenylmethyl sulfonyl fluoride, 1.5 mM 8-hydroxyquinoline, 0.4 mg/mL bovine serum albumin (BSA), and 0.024 mg/mL neomycin sulfate. This mixture was incubated for two hours at 37° C. in the presence or absence of renin inhibitors. The produced angiotensin I was determined by radioimmunoassay (New England Nuclear kit). Test compounds to be assayed were dissolved in DMSO and diluted with 100 mM Tris-acetate buffer at pH 7.4 containing 0.5% BSA to the appropriate concentration. The final concentration of organic solvent in the reaction mixture was less than 1%. Control incubations at 37° C. were used to correct for effects of organic solvent on renin activity.

IC50: 180 pM
Structure (SMILES): C#CC[C@H](NC(=O)[C@@H](CC(=O)N(C)CCn1ccnc1)Cc1ccccc1)C(=O)N[C@@H](CC1CCCCC1)[C@@H](O)[C@@H](O)CC(C)C (relative stereo) [Example 1, N^1-[1R*-[[[1S,1R*-(cyclohexylmethyl)-2S*,3R*-dihydroxy-5-methylhexyl]amino]carbonyl]-3-butynyl]-N^4-[2-(1H-imidazol-1-yl)ethyl]-N^4-methyl-2S*-(phenylmethyl)butanediamide]
